In this assay the test system is hyaluronan export from fibroblasts. As to the kind of experiment: Assay for hyaluronan transport/export inhibitors in fibroblast cell culture (hyaluronan in culture medium by ELISA). As to conditions: 48 h, 2 days at 37° C., hyaluronan concentration in culture medium, read-out: Inhibition of hyaluronan export IC50. Type of assay: cell-based. As for the experimental part: Assay for Hyaluronan Transport/Export Inhibitors in Fibroblast Cell Culture
Trypsinized fibroblasts were suspended in Dulbeccos medium at 10^5 cells/ml and 100 μl aliquots were transferred to a 96 well microtiter plate. The first row received 200 μl of the suspension and 20 μl of the inhibitors of the invention dissolved in phosphate buffered saline at concentrations of 4 mM. A serial dilution of the inhibitors was established by transfer of 100 μl aliquots from the first row to the following rows. All experiments were performed in duplicates. […] The cells were incubated for 2 days at 37° C. and aliquots (5 and 20 μl) of the culture medium were used for measurement of the hyaluronan concentration in the cell culture medium by an ELISA [125]. Briefly, the wells of a 96 well Covalink-NH-microtiter plate (NUNC) were coated with 100 μl of a mixture of […] of hyaluronan (HEALON®), 9.2 μg/ml of N-Hydroxysuccinimide-3-sulfonic acid and 615 μl/ml of 1-ethyl-3-(3-dimethylaminopropyl)-carbodiimide for 2 hours at room temperature and overnight at 4° C. The wells were washed three times with 2 M NaCl, 41 mM MgSO4, 0.05% Tween-20 in 50 mM phosphate buffered saline pH 7.2 (buffer A) and once with 2 M NaCl, 41 mM MgSO4, in phosphate buffered saline pH 7.2. Additional binding sites were blocked by incubation with 300 μl of 0.5% bovine serum albumin in phosphate buffered saline for 30 min at 37° C. Calibration of the assay was performed with standard concentrations of hyaluronan ranging from 15 ng/ml to 6000 ng/ml in equal volumes of culture medium as used for measurement of the cellular supernatants. A solution (50 μl) of the biotinylated hyaluronan binding fragment of aggrecan (Calbiochem) in 1.5 M NaCl, 0.3 M guanidinium hydrochloride, 0.08% bovine serum albumin 0.02% NaN3 25 mM phosphate buffer pH 7.0 was preincubated with 50 μl of the standard hyaluronan solutions or cellular supernatants for 1 hour at 37° C. […] The adsorption was read at 490 nm. The concentrations in the samples were calculated from a logarithmic regression curve of the hyaluronan standard solutions.
As usually defined, the IC50 is the point on the concentration scale where inhibition reaches its midpoint. For `CC(C)=CCc1c(O)cc(O)c2c1OC(c1ccc(O)cc1)CC2=O` (stereo not drawn) [8-Prenylnaringenin], the IC50 stood at 15 µM.

Take `COc1cc(O)c(CC=C(C)C)c2c1C(=O)CC(c1ccc(O)cc1)O2` (stereo not drawn) [Isoxanthohumol]: the IC50 came out at 15 µM.

Turning to `COc1cc(O)c(CC=C(C)C)c(O)c1C(=O)/C=C/c1ccc(O)cc1` [Xanthohumol], the IC50 is 8 µM.

Source of the values: US20150045423A1, “COMPOUNDS FOR THE PREVENTION AND/OR TREATMENT OF OSTEOARTHROSIS” (Universitaetsklinikum Muenster, priority 2010, published 2015).
